Test results published in patent EP1024807B1, “USE OF THE COMPOUND 2-METHOXYPHENYL-1-METHYL-5P-METHYLBENZOYL-PYRROL-2-ACETAMIDO ACETATE FOR THE PRODUCTION OF AN ANTI-INFLAMMATORY DRUG WITH PREVENTION OF GASTRIC HYPERSECRETION AND RENAL IMPAIRMENT” (MEDOSAN Ricerca S.r.l., priority 1997, dated 1999).
Entries after “also recorded” stand apart in the source; their conditions may differ.

How the values were obtained:
[1] = target: T1, COX1 (cyclooxygenase 1) (Rattus norvegicus, UniProt Q63921); experiment: Pharmacological studies in rats: cyclooxygenase inhibition; conditions: in vivo
T1 construct: the pharmacological studies conducted in rats; from tissue; host or cells: rat (in vivo; tissue not given)
T1 sequence (Q63921 27-602): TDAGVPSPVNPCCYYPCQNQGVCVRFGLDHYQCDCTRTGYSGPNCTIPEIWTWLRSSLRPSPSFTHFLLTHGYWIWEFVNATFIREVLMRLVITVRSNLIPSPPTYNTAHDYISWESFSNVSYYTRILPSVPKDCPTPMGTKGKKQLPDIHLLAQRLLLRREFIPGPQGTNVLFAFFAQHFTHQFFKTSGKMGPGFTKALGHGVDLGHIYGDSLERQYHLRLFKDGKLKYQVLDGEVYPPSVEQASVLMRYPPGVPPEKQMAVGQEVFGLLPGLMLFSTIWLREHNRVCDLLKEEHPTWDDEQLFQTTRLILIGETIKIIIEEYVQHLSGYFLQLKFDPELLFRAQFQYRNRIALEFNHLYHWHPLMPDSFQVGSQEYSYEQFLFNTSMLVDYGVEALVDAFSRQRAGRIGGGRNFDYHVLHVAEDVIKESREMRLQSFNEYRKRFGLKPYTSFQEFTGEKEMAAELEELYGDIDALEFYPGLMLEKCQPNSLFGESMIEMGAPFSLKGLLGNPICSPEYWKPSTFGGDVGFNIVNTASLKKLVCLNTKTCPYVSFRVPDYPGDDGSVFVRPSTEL

[2] = target: T2, H2 receptors (Cavia porcellus, UniProt P47747); experiment: Isolated atrium, histamine stimulation; conditions: guinea-pig atrium, fig. 5
T2 construct: using an organ in which only H2 receptors were present (guinea-pig atrium); from tissue; host or cells: guinea-pig atrium
T2 sequence (P47747 whole entry): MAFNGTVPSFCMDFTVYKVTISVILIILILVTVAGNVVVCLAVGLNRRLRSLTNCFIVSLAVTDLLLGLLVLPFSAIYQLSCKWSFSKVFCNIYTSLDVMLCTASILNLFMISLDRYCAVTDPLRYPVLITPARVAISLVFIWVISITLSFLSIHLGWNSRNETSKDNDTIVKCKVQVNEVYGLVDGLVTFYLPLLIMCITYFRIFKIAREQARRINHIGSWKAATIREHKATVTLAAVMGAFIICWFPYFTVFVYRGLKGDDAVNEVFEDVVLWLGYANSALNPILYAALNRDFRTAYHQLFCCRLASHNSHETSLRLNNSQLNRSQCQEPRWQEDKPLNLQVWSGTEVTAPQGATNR
Excerpt: (§1) On the basis of the above series of observations, we decided to study the pharmacological behaviour of a number of widely used NSAIDs (including amtolmetin guacyl) towards the gastric mucosa in the rat, as previously described. […] The first hypothesis was that we were deling with an anti-H2 drug, given the fact that its potency could be compared with that of cimetidine.

[3] = system: rat; experiment: Carcinogenesis studies, gavage over the life-span; type: in vivo; conditions: gavage for a period covering the animal's life-span
[4] = system: osteoarthritis; experiment: Clinical trials in osteoarthritis; type: in vivo, man; conditions: 550 patients, mean 80 days; versus seven reference NSAIDs; listed as Amtolmetin guacyl
Excerpt: In this degenerative disease amtolmetin guacyl was compared with diclofenac, diflunisal, flurbiprofen, ibuprofen, ketoprofen, naproxen and tolmetin.

[5] = system: patients with rheumatoid arthritis in the active phase; experiment: Clinical trials in rheumatoid arthritis; type: in vivo, man; conditions: 150 patients, 30 days; versus ibuprofen, indomethacin, piroxicam, tolmetin; listed as Amtolmetin guacyl
Excerpt: Amtolmetin guacyl was compared with ibuprofen, indomethacin, piroxicam and tolmetin.

[6] = system: Cynomolgous monkey; experiment: Chronic oral administration for 52 weeks, gastric damage; type: in vivo
[7] = system: guinea-pig isolated ileum; experiment: Intestinal motility in isolated ileum with various agonists; conditions: all of the traditional agonists (histamine, acetylcholine, serotonin)
Excerpt: In parallel we also studied the possible effect on intestinal motility in the guinea-pig isolated ileum (b.r. No. 29) using various agonists (fig. 7, 8 and 9).

[8] = system: gastric PGE2; experiment: Effect on gastric PGE2 in the rat; type: in vivo
Excerpt: Moreover, as with all the NSAIDs currently aveilable, it inhibits gastric PGE2 in the rat, albeit to a lesser degree than ASA (Table 7).

[9] = system: rat; experiment: Fertility, embryotoxicity and teratogenicity studies; type: in vivo
[10] = system: platelet aggregation; experiment: Platelet aggregation
Excerpt: For all of these reasons the drug was expected to induce gastric damage and inhibit platelet aggregation.

[11] = system: gastric acid secretion; experiment: Gastric acid secretion in the rat; type: in vivo
Excerpt: as §1
The introduction of a guaiacol moiety into the amtolmetin guacyl molecule led to the insertion of a vanilloid radical which confers gastroprotective properties to the molecule.

[12] = system: rat; experiment: Chronic oral administration for 52 weeks, gastric damage; type: in vivo
[13] = system: Anaesthetized Rat; experiment: Drug safety trials: blood pressure and cardiovascular system; conditions: in vivo
Excerpt: From a toxicological viewpoint the drug offers an excellent torability profile.

[14] = Persistence of intact molecule in gastric and intestinal walls; type: in vivo; conditions: after oral administration in the rat
Experimental: The presence of the vanilloid radical, essential to the expression of the gastroprotective mechanism, is guaranteed by the prolonged persistence of high amounts of intact amtolmetin guacyl molecule in the gastric and intestinal walls (at least 2 hours after oral administration in the rat).

[15] = system: human lymphocites cultivated in vitro; experiment: Chromosome aberrations in lymphocytes in vitro; type: cell-based
[16] = system: rat isolated stomach strips; experiment: Gastric motility in isolated stomach strips, acetylcholine and serotonin as agonists; conditions: acetilcholine and serotonin as agonists
[17] = system: Saccharomycetes pombe Pl; type: cell-based
[18] = system: Rats; experiment: Adjuvant arthritis (joint diameter and patellar bone mass); type: in vivo; conditions: for Swelling Diameter difference (L-R) / Joint diameter (mm) Left / Joint diameter (mm) Right: day 0-3; for Joint diameter (mm) Left / Bone mass (mg) Left: left = arthritic joint; for Joint diameter (mm) Right / Bone mass (mg) Right: right = saline control joint; for % Change: ([left-right]/right)X100; for Bone loss Left-Right / Bone mass (mg) Left / Bone mass (mg) Right: patellar bone
Experimental: The drugs were administered daily by oral gavage for 4 days (day 0-3); piroxicam and MED 15 were dissolved in 5% Gum arabic + 0.01% Tween 80, and administered in a volume of 0.5ml. Piroxicam was administered as 3mg/kg and MED 15 was administered as 25, 50 and 100mg/kg doses. Table 8 bis illustrating dosage regimes. L=left stifle joint, R=Right stifle joint.
Under halothane anaesthesia, rats received 200µg of heat-killed finely ground Mycobactyerium tubercolosis in 25µl (80mg/10ml sterile saline) injected intra-articulary into the left stifle joint. The contralateral joint received 25µl 0.9% sterile saline. Control animals received 25µl of 0.9% sterile saline in both knees. SGE 50µl microsyringes with a volume lock calibrated at 25µl were used with 30G stainless steel needles. Solutions were prepared sterile, and aseptic technique was used throughout, with sterilisation of syringes between groups.
The rats were killed by carbon dioxide suffocation. The body weight was noted and the skin overlying the stifle joints was divided and the joint diameters assessed in mm using Mitutoyo vernier callipers (530-312, 0.02mm).
The patellae were dissected, weighed (Sartorius, 0.01mg) and then immersed in 1ml digestion buffer (see below) to remove soft tissue.
Digestive buffer was prepared fresh to the following formula; disodium hydrogen orthophosphate 20mM, EDTA 1mM and diothiothreitol at 2mM. Papain (EC 3.4.22.2) was added at a concentration of 6U/ml. Each patella was digested in 1ml of digestive buffer at 56°C for 4 hours. The residual paterllar bones were dried (100°C 24 hours) and weighed (Sartorius 0.01mg).
Results are presented as follows: left and right parameter alone, the difference between arthritic and contralateral control joint (left-right); and % difference between arthritic and control joints ([left-right]/right]X100).
Calculations were carried out using the spreadsheet program Lotus 123. Statistical comparisons were made between the absolute differences using INSTAT Mann Whitney unpaired two-tailed statistical test.

Structure (SMILES): COc1ccccc1OC(=O)CNC(=O)Cc1ccc(C(=O)c2ccc(C)cc2)n1C [MED 15, 2-methoxyphenyl-1-methyl-5p-methylbenzoylpyrrol-2-acetamido acetate]
- inhibition of COX1 [1]: inhibition
- interference with the H2 receptors [2]: did not interfere with the H2 receptors
- Carcinogenesis [3]: innocuity
- Evaluation of antiphlogistic activity [4]: statistically significant more rapid and more marked activity; also recorded: Amtolmetin guacyl was more rapid and more active in a statistically significant manner in osteoarthritis compared to the reference NSAIDs
- Evaluation of antiphlogistic activity [5]: significantly more rapid and marked anti-inflammatory activity compared to the reference NSAIDs; also recorded: Amtolmetin guacyl demonstrated statistical significant activity more rapid and more marked when compared to the reference NSAIDs in rheumatoid arthritis
- gastric damage [6]: absence of gastric damage
- motility [7]: decrease in motility
- %inhibition ([8]; gastric PGE2 versus controls): 69.9%
- PGE2 (ngtg^Δ tissue)±S.E. ([8]; gastric tissue, rat, controls 108.7±23.9): 32.7±8.5 nanograms for gram of tissue
- fertility, embriotoxicity and teratogenicity [9]: safety
- platelet antiaggregating properties [10]: significant platelet antiaggregating properties
- basal acid secretion ([11]; basal, unstimulated): fails to modify
- effect on gastric acid ([11]; rat, in vivo): reduction of gastric acid
- activity on gastric secretion after CGRP antagonist ([11]; with CGRP8-37, peptone-stimulated, fig. 14): blockage
- effect on gastric acid secretion after capsaicin receptor antagonist ([11]; with capsazepine, peptone-stimulated, fig. 16): inhibited by the capsazepine antagonist
- gastric damage [12]: absence of gastric damage
- effects on blood pressure and on the cardiovascular system [13]: absence of effects
- persistence of high amounts of intact molecule in the gastric and intestinal walls [14]: at least 2 hours
- chromosomic aberrations [15]: absence of amtolmetin guacyl-related damage
- motility [16]: down-regulation of motility
- forward mutation [17]: absence of amtolmetin guacyl-related damage
- Swelling Diameter difference (L-R) ([18]; 25mg/kg daily oral): 2.22 mm
- Joint diameter (mm) Left ([18]; 25mg/kg daily oral): 11.57 mm
- Joint diameter (mm) Right ([18]; 25mg/kg daily oral): 9.35 mm
- Swelling Diameter difference (L-R) ([18]; 50mg/kg daily oral): 2.06 mm
- Joint diameter (mm) Left ([18]; 50mg/kg daily oral): 10.95 mm
- Joint diameter (mm) Right ([18]; 50mg/kg daily oral): 8.88 mm
- Swelling Diameter difference (L-R) ([18]; 100mg/kg daily oral): 1.38 mm
- Joint diameter (mm) Left ([18]; 100mg/kg daily oral): 10.26 mm
- Joint diameter (mm) Right ([18]; 100mg/kg daily oral): 8.88 mm
- protective effect against bone loss compared to piroxicam ([18]; dose of 100mg/kg): not significantly different to piroxicam
- % Change ([18]; joint diameter, 25mg/kg daily oral): 24.04%
- % Change ([18]; joint diameter, 50mg/kg daily oral): 23.36%
- % Change ([18]; joint diameter, 100mg/kg daily oral): 15.71%
- % Change ([18]; patellar bone mass, 25mg/kg daily oral): 45.45%
- % Change ([18]; patellar bone mass, 50mg/kg daily oral): 40.55%
- % Change ([18]; patellar bone mass, 100mg/kg daily oral): 31.85%
- protection against bone loss ([18]; patellar bone mass, arthritic groups): dose dependent protective effect
- Bone loss Left-Right ([18]; 25mg/kg daily oral): -1.94 mg
- Bone mass (mg) Left ([18]; 25mg/kg daily oral): 2.33 mg
- Bone mass (mg) Right ([18]; 25mg/kg daily oral): 4.27 mg
- Bone loss Left-Right ([18]; 50mg/kg daily oral): -1.69 mg
- Bone mass (mg) Left ([18]; 50mg/kg daily oral): 2.49 mg
- Bone mass (mg) Right ([18]; 50mg/kg daily oral): 4.18 mg
- Bone loss Left-Right ([18]; 100mg/kg daily oral): -1.38 mg
- Bone mass (mg) Left ([18]; 100mg/kg daily oral): 2.97 mg
- Bone mass (mg) Right ([18]; 100mg/kg daily oral): 4.34 mg
